Species on record: Rattus norvegicus
Experiment: DrugMatrix - Regimen: Daily Repeat
Assay type: toxicity, organism-based, Sprague-Dawley
Set-up: regimen Daily Repeat, gender Male, age 6-8 weeks
Details: in vivo, po, route oral GAVAGE, vehicle .5 % CMC; for ABSOLUTE BASOPHIL / ABSOLUTE EOSINOPHIL / ABSOLUTE LYMPHOCYTE / ABSOLUTE MONOCYTE / ABSOLUTE SEGMENTED NEUTROPHIL / BASOPHIL / EOSINOPHIL / ERYTHROCYTE COUNT / HEMATOCRIT / HEMOGLOBIN / LEUKOCYTE COUNT / LYMPHOCYTE / MEAN CORPUSCULAR HEMOGLOBIN / MEAN CORPUSCULAR HEMOGLOBIN CONCENTRATION / MEAN CORPUSCULAR VOLUME / MONOCYTE / NEUTROPHIL / NUCLEATED RED BLOOD CELLS / PLATELET COUNT: tissue Blood; for ALANINE AMINOTRANSFERASE / ALBUMIN / ALKALINE PHOSPHATASE / ASPARTATE AMINOTRANSFERASE / BLOOD UREA NITROGEN / CARBON DIOXIDE / CHLORIDE / CHOLESTEROL / CREATINE PHOSPHOKINASE / CREATININE / GLUCOSE / LACTATE DEHYDROGENASE / LIPASE / PHOSPHORUS / POTASSIUM / SODIUM / TOTAL BILIRUBIN / TOTAL PROTEIN / URIC ACID: tissue Plasma
[1] = 0 mg/kg, 72 h, dose level Control, time 3 day
[2] = 0 mg/kg, 120 h, dose level Control, time 5 day
[3] = 15 mg/kg, 72 h, dose level Low, time 3 day

Question: For `COC(=O)c1ccc(O)cc1` [METHYLPARABEN], which “ABSOLUTE BASOPHIL” value [1] is on record?
Answer: 0 CELLS/uL

Question: What about the “ABSOLUTE EOSINOPHIL” value [1] of the same compound?
Answer: 0 CELLS/uL

Question: And the “ABSOLUTE LYMPHOCYTE” value [1]?
Answer: 10913.67 CELLS/uL

Question: And the “ABSOLUTE MONOCYTE” value [1]?
Answer: 85.33 CELLS/uL

Question: And the “ABSOLUTE SEGMENTED NEUTROPHIL” value [1]?
Answer: 1401 CELLS/uL

Question: And the BASOPHIL [1]?
Answer: 0%

Question: And the EOSINOPHIL [1]?
Answer: 0%

Question: What about the “ERYTHROCYTE COUNT” value [1] of the same compound?
Answer: 5.57 x10E6/uL

Question: What about the HEMATOCRIT [1] of the same compound?
Answer: 35.58%

Question: What about the HEMOGLOBIN [1] of the same compound?
Answer: 13.8 G/DL

Question: What about the “LEUKOCYTE COUNT” value [1] of the same compound?
Answer: 12.4 x10E3/uL

Question: What about the LYMPHOCYTE [1] of the same compound?
Answer: 88%

Question: And the “MEAN CORPUSCULAR HEMOGLOBIN” value [1]?
Answer: 24.78 pg

Question: What about the “MEAN CORPUSCULAR HEMOGLOBIN CONCENTRATION” value [1] of the same compound?
Answer: 38.82 G/DL

Question: And the “MEAN CORPUSCULAR VOLUME” value [1]?
Answer: 63.88 fL

Question: What about the MONOCYTE [1] of the same compound?
Answer: 0.67%

Question: And the NEUTROPHIL [1]?
Answer: 11.33%

Question: And the “NUCLEATED RED BLOOD CELLS” value [1]?
Answer: 0 /100WBC

Question: What about the “PLATELET COUNT” value [1] of the same compound?
Answer: 1162.33 x10E3/uL

Question: What about the “ALANINE AMINOTRANSFERASE” value [1] of the same compound?
Answer: 53 u/L

Question: And the ALBUMIN [1]?
Answer: 4.17 G/DL

Question: And the “ALKALINE PHOSPHATASE” value [1]?
Answer: 374.5 u/L

Question: And the “ASPARTATE AMINOTRANSFERASE” value [1]?
Answer: 89.5 u/L

Question: And the “BLOOD UREA NITROGEN” value [1]?
Answer: 16.33 mg/dL

Question: And the “CARBON DIOXIDE” value [1]?
Answer: 29.17 mmol/L

Question: And the CHLORIDE [1]?
Answer: 97.67 MEQ/L

Question: What about the CHOLESTEROL [1] of the same compound?
Answer: 77 mg/dL

Question: What about the “CREATINE PHOSPHOKINASE” value [1] of the same compound?
Answer: 464.83 u/L

Question: And the CREATININE [1]?
Answer: 0.14 mg/dL

Question: What about the GLUCOSE [1] of the same compound?
Answer: 164 mg/dL

Question: And the “LACTATE DEHYDROGENASE” value [1]?
Answer: 155.5 u/L

Question: And the LIPASE [1]?
Answer: 9.17 u/L

Question: And the PHOSPHORUS [1]?
Answer: 12.4 mg/dL

Question: What about the POTASSIUM [1] of the same compound?
Answer: 6.91 MEQ/L

Question: And the SODIUM [1]?
Answer: 141.47 MEQ/L

Question: And the “TOTAL BILIRUBIN” value [1]?
Answer: 0.2 mg/dL

Question: What about the “TOTAL PROTEIN” value [1] of the same compound?
Answer: 5.95 G/DL

Question: And the “URIC ACID” value [1]?
Answer: 1.72 mg/dL

Question: What about the “ABSOLUTE BASOPHIL” value [2] of the same compound?
Answer: 0 CELLS/uL

Question: And the “ABSOLUTE EOSINOPHIL” value [2]?
Answer: 20.5 CELLS/uL

Question: What about the “ABSOLUTE LYMPHOCYTE” value [2] of the same compound?
Answer: 13871.67 CELLS/uL

Question: What about the “ABSOLUTE MONOCYTE” value [2] of the same compound?
Answer: 60.5 CELLS/uL

Question: What about the “ABSOLUTE SEGMENTED NEUTROPHIL” value [2] of the same compound?
Answer: 980.67 CELLS/uL

Question: What about the BASOPHIL [2] of the same compound?
Answer: 0%

Question: And the EOSINOPHIL [2]?
Answer: 0.17%

Question: And the “ERYTHROCYTE COUNT” value [2]?
Answer: 5.65 x10E6/uL

Question: And the HEMATOCRIT [2]?
Answer: 35.63%

Question: And the HEMOGLOBIN [2]?
Answer: 14.08 G/DL

Question: What about the “LEUKOCYTE COUNT” value [2] of the same compound?
Answer: 14.93 x10E3/uL

Question: And the LYMPHOCYTE [2]?
Answer: 92.83%

Question: And the “MEAN CORPUSCULAR HEMOGLOBIN” value [2]?
Answer: 24.97 pg

Question: And the “MEAN CORPUSCULAR HEMOGLOBIN CONCENTRATION” value [2]?
Answer: 39.55 G/DL

Question: What about the “MEAN CORPUSCULAR VOLUME” value [2] of the same compound?
Answer: 63.13 fL

Question: What about the MONOCYTE [2] of the same compound?
Answer: 0.33%

Question: And the NEUTROPHIL [2]?
Answer: 6.67%

Question: What about the “NUCLEATED RED BLOOD CELLS” value [2] of the same compound?
Answer: 0 /100WBC

Question: And the “PLATELET COUNT” value [2]?
Answer: 1248.17 x10E3/uL

Question: And the “ALANINE AMINOTRANSFERASE” value [2]?
Answer: 45.17 u/L

Question: What about the ALBUMIN [2] of the same compound?
Answer: 4.27 G/DL

Question: What about the “ALKALINE PHOSPHATASE” value [2] of the same compound?
Answer: 405.67 u/L

Question: What about the “ASPARTATE AMINOTRANSFERASE” value [2] of the same compound?
Answer: 74.17 u/L

Question: And the “BLOOD UREA NITROGEN” value [2]?
Answer: 15.5 mg/dL

Question: And the “CARBON DIOXIDE” value [2]?
Answer: 30.17 mmol/L

Question: What about the CHLORIDE [2] of the same compound?
Answer: 100.67 MEQ/L

Question: And the CHOLESTEROL [2]?
Answer: 57 mg/dL

Question: And the “CREATINE PHOSPHOKINASE” value [2]?
Answer: 239.5 u/L

Question: What about the CREATININE [2] of the same compound?
Answer: 0.17 mg/dL

Question: What about the GLUCOSE [2] of the same compound?
Answer: 165.67 mg/dL

Question: What about the “LACTATE DEHYDROGENASE” value [2] of the same compound?
Answer: 90.5 u/L

Question: And the LIPASE [2]?
Answer: 8.83 u/L

Question: What about the PHOSPHORUS [2] of the same compound?
Answer: 12.32 mg/dL

Question: What about the POTASSIUM [2] of the same compound?
Answer: 7.03 MEQ/L

Question: What about the SODIUM [2] of the same compound?
Answer: 142.65 MEQ/L

Question: And the “TOTAL BILIRUBIN” value [2]?
Answer: 0.18 mg/dL

Question: What about the “TOTAL PROTEIN” value [2] of the same compound?
Answer: 6.03 G/DL

Question: And the “URIC ACID” value [2]?
Answer: 1.98 mg/dL

Question: What about the “ABSOLUTE BASOPHIL” value [3] of the same compound?
Answer: 0 CELLS/uL

Question: What about the “ABSOLUTE EOSINOPHIL” value [3] of the same compound?
Answer: 0 CELLS/uL

Question: And the “ABSOLUTE LYMPHOCYTE” value [3]?
Answer: 13173.33 CELLS/uL

Question: What about the “ABSOLUTE MONOCYTE” value [3] of the same compound?
Answer: 95.67 CELLS/uL

Question: And the “ABSOLUTE SEGMENTED NEUTROPHIL” value [3]?
Answer: 1364.33 CELLS/uL

Question: What about the BASOPHIL [3] of the same compound?
Answer: 0%

Question: What about the EOSINOPHIL [3] of the same compound?
Answer: 0%

Question: What about the “ERYTHROCYTE COUNT” value [3] of the same compound?
Answer: 5.6 x10E6/uL

Question: What about the HEMATOCRIT [3] of the same compound?
Answer: 37.1%

Question: What about the HEMOGLOBIN [3] of the same compound?
Answer: 14.57 G/DL

Question: What about the “LEUKOCYTE COUNT” value [3] of the same compound?
Answer: 14.63 x10E3/uL

Question: And the LYMPHOCYTE [3]?
Answer: 90%

Question: What about the “MEAN CORPUSCULAR HEMOGLOBIN” value [3] of the same compound?
Answer: 26.03 pg

Question: And the “MEAN CORPUSCULAR HEMOGLOBIN CONCENTRATION” value [3]?
Answer: 39.27 G/DL

Question: And the “MEAN CORPUSCULAR VOLUME” value [3]?
Answer: 66.23 fL

Question: What about the MONOCYTE [3] of the same compound?
Answer: 0.67%

Question: And the NEUTROPHIL [3]?
Answer: 9.33%

Question: And the “NUCLEATED RED BLOOD CELLS” value [3]?
Answer: 0.67 /100WBC

Question: What about the “PLATELET COUNT” value [3] of the same compound?
Answer: 1171 x10E3/uL

Question: And the “ALANINE AMINOTRANSFERASE” value [3]?
Answer: 56.67 u/L

Question: What about the ALBUMIN [3] of the same compound?
Answer: 4.2 G/DL

Question: What about the “ALKALINE PHOSPHATASE” value [3] of the same compound?
Answer: 324 u/L

Question: What about the “ASPARTATE AMINOTRANSFERASE” value [3] of the same compound?
Answer: 86 u/L

Question: What about the “BLOOD UREA NITROGEN” value [3] of the same compound?
Answer: 16.33 mg/dL

Question: And the “CARBON DIOXIDE” value [3]?
Answer: 26.67 mmol/L

Question: What about the CHLORIDE [3] of the same compound?
Answer: 98.67 MEQ/L

Question: What about the CHOLESTEROL [3] of the same compound?
Answer: 78 mg/dL

Question: What about the “CREATINE PHOSPHOKINASE” value [3] of the same compound?
Answer: 194 u/L

Question: And the CREATININE [3]?
Answer: 0.14 mg/dL

Question: What about the GLUCOSE [3] of the same compound?
Answer: 149.67 mg/dL

Question: And the “LACTATE DEHYDROGENASE” value [3]?
Answer: 120 u/L

Question: What about the LIPASE [3] of the same compound?
Answer: 9.33 u/L

Question: What about the PHOSPHORUS [3] of the same compound?
Answer: 14.03 mg/dL

Question: And the POTASSIUM [3]?
Answer: 6.83 MEQ/L

Question: What about the SODIUM [3] of the same compound?
Answer: 143.63 MEQ/L

Question: And the “TOTAL BILIRUBIN” value [3]?
Answer: 0.23 mg/dL

Question: What about the “TOTAL PROTEIN” value [3] of the same compound?
Answer: 5.9 G/DL

Question: And the “URIC ACID” value [3]?
Answer: 1.83 mg/dL
